Data from ChEMBL document CHEMBL1955745, “Synthesis and in vitro antitumor activity of asperphenamate derivatives as autophagy inducer” (Bioorg Med Chem Lett, 2012).
Converted amounts (≈) assume the structure as drawn. The source made the active and inactive calls. No cut-off for these calls is given here.

Tests used:
MCF7 [1] = assay: Cell cycle arrest in human MCF7 cells assessed as accumulation at subG1 phase at 10 uM after 24 hrs by propidium iodide staining-based flow cytometric analysis (reference value: 4.11%); format: functional
MCF7 [2] = assay: Induction of autophagy in human MCF7 cells assessed as autophagic cells at 5 uM after 72 hrs by MDC staining-based flow cytometry (reference value: 2.14%); format: functional
MCF7 [3] = assay: Cell cycle arrest in human MCF7 cells assessed as accumulation at G0/G1 phase at 10 uM after 48 hrs by propidium iodide staining-based flow cytometric analysis (reference value: 60.01%); format: functional
MCF7 [4] = assay: Cell cycle arrest in human MCF7 cells assessed as accumulation at S phase at 10 uM after 24 hrs by propidium iodide staining-based flow cytometric analysis (reference value: 14.35%); format: functional
MCF7 [5] = assay: Cell cycle arrest in human MCF7 cells assessed as accumulation at G2/M phase at 10 uM after 72 hrs by propidium iodide staining-based flow cytometric analysis (reference value: 20.62%); format: functional
MCF7 [6] = assay: Induction of autophagy in human MCF7 cells assessed as increase in cytoplasmic acidic vesicular organelles at 5 to 10 uM after 72 hrs by AO staining-based fluorescence microscopic analysis; format: functional, cell-based
MCF7 [7] = assay: Antiproliferative activity against human MCF7 cells after 3 days by MTT assay; format: functional, cell-based; details: MCF7, 72 h
MCF7 [8] = assay: Selectivity ratio of IC50 for human […] cells to IC50 for human MCF7 cells; format: functional
MCF7 [9] = assay: Cell cycle arrest in human MCF7 cells assessed as accumulation at S phase at 10 uM after 48 hrs by propidium iodide staining-based flow cytometric analysis (reference value: 14.35%); format: functional
MCF7 [10] = assay: Ratio of IC50 for cisplatin to compound IC50 for human MCF7 cells after 3 days by MTT assay; format: functional
MCF7 [11] = assay: Cell cycle arrest in human MCF7 cells assessed as accumulation at G2/M phase at 10 uM after 48 hrs by propidium iodide staining-based flow cytometric analysis (reference value: 20.62%); format: functional
MCF7 [12] = assay: Induction of autophagy in human MCF7 cells assessed as increase in cytoplasmic acidic vesicular organelles at 5 to 10 uM after 72 hrs by MDC staining-based fluorescence microscopic analysis; format: functional, cell-based
HeLa = assay: Antiproliferative activity against human HeLa cells after 3 days by MTT assay; format: functional, cell-based; details: 72 h
MCF7 [13] = assay: Cell cycle arrest in human MCF7 cells assessed as accumulation at S phase at 10 uM after 72 hrs by propidium iodide staining-based flow cytometric analysis (reference value: 14.35%); format: functional
MCF7 [14] = assay: Cell cycle arrest in human MCF7 cells assessed as accumulation at G0/G1 phase at 10 uM after 72 hrs by propidium iodide staining-based flow cytometric analysis (reference value: 60.01%); format: functional
MCF7 [15] = assay: Induction of autophagy in human MCF7 cells assessed as autophagic cells at 10 uM after 72 hrs by MDC staining-based flow cytometry (reference value: 2.14%); format: functional
MCF7 [16] = assay: Selectivity ratio of IC50 for human HeLa cells to IC50 for human MCF7 cells; format: functional
[17] = Thermodynamic solubility of the compound in phosphate buffer at pH 7.4 at 1 mg after 10 mins by HPLC -UV analysis; format: physicochemical; details: read-out: Therm_solubility
MCF7 [18] = assay: Cell cycle arrest in human MCF7 cells assessed as accumulation at subG1 phase at 10 uM after 72 hrs by propidium iodide staining-based flow cytometric analysis (reference value: 4.11%); format: functional
Bel-7402 = assay: Antiproliferative activity against human Bel7402 cells after 3 days by MTT assay; format: functional, cell-based; details: Bel-7402, 72 h
MCF7 [19] = assay: Cell cycle arrest in human MCF7 cells assessed as accumulation at G0/G1 phase at 10 uM after 24 hrs by propidium iodide staining-based flow cytometric analysis (reference value: 60.01%); format: functional
MCF7 [20] = assay: Cell cycle arrest in human MCF7 cells assessed as accumulation at subG1 phase at 10 uM after 48 hrs by propidium iodide staining-based flow cytometric analysis (reference value: 4.11%); format: functional
MCF7 [21] = assay: Induction of autophagy in human MCF7 cells assessed as decrease in LC3-1 level at 5 to 10 uM after 48 hrs by Western blot analysis; format: functional, cell-based
MCF7 [22] = assay: Induction of autophagy in human MCF7 cells assessed as increase in […] level at 5 to 10 uM after 48 hrs by Western blot analysis; format: functional, cell-based
MCF7 [23] = assay: Cell cycle arrest in human MCF7 cells assessed as accumulation at G2/M phase at 10 uM after 24 hrs by propidium iodide staining-based flow cytometric analysis (reference value: 20.62%); format: functional

Work on `O=C(Cc1ccccc1OCc1ccccc1)N[C@H](Cc1ccccc1)C(=O)OC[C@@H](Cc1ccccc1)NC(=O)c1ccccc1` yielded an Activity (MCF7 [1]) of 1.76%, an Activity (MCF7 [2]) of 15.62% and an Activity (MCF7 [3]) of 59.4%. The Activity (MCF7 [4]) was 15.98%, the Activity (MCF7 [5]) was 20.38% and the Activity (MCF7 [6]) was “Active”. The IC50 (MCF7 [7]) was 6.06 µM, the “Ratio IC50” value (MCF7 [8]) was 5 and the Activity (MCF7 [9]) was 17.85%. The “Ratio IC50” value (MCF7 [10]) was 1.5, the Activity (MCF7 [11]) was 17.07% and the Activity (MCF7 [12]) was “Active”. It also gave an IC50 (HeLa) of 27 µM, an Activity (MCF7 [13]) of 16.69% and an Activity (MCF7 [14]) of 57.08%. For the same molecule, the Activity (MCF7 [15]) was 52.62%, the “Ratio IC50” value (MCF7 [16]) was 5 and the solubility thermodynamic at 10 min [17] was 223 µg/mL (≈ 356 µM). The Activity (MCF7 [18]) was 2.83%, the IC50 (Bel-7402) was 32.6 µM and the Activity (MCF7 [19]) was 59.85%. For the same molecule, the Activity (MCF7 [20]) was 3.16%, the Activity (MCF7 [21]) was “Active” and the Activity (MCF7 [22]) was “Active”. For the same molecule, the Activity (MCF7 [23]) was 21.65%.
